Source: PMC8584424, “Synthesis of Novel 2-Thiouracil-5-Sulfonamide Derivatives as Potent Inducers of Cell Cycle Arrest and CDK2A Inhibition Supported by Molecular Docking” (International Journal of Molecular Sciences, 2021)

Legend:
[1] = test system: A-2780 (ovarian) cancer cells; test: In vitro cytotoxicity assessment (MTT), A-2780; format: cell-based, human; settings: for IC50: Homo sapiens, A2780, 48 h, MTT, mean of three experiments ± SD, NA: not active
Description: (§1) Four cancer cell lines were used in this study viz ovarian (A-2780), colon (HT-29), breast (MCF-7), and liver (HepG2) cancer cells. They were provided by the National Institute of Cancer, Cairo University (Cairo, Egypt). The selection of those cancer cells was encouraged by the stated anticancer activity of a number 5-Fluorouracil hybrids against the mentioned cancer cells and based on the reported cytotoxic activity of a large range of bioactive cores containing sulfonamide moiety.
(§2) Cells were seeded in 96 well plates at a density of 2 × 10^4 and incubated to allow the attachment for 24 h. Then the cells were treated at different concentrations (2.5–10 μM) with 5-FU as a positive control or the synthesized compounds for 48h. 0.1% DMSO was used as a negative control. Afterward, cells were washed using PBS and the viability of cells was evaluated utilizing in vitro toxicology assay kit, MTT Based (Stock No. TOX-1, Sigma-Aldrich, Saint Louis, Missouri, USA), per the manufacturer’s instructions. The plates were read at 570 nm. IC50 was calculated using a sigmoidal dose-response curve (GraphPad Prism version 5 for Windows (GraphPad Inc., USA)). Data are presented as the mean of the three individual experiments. The degree of selectivity of the active target compounds relative to WI38 normal cell lines is expressed as previously described. Selectivity index (SI) = IC50 of a pure compound in a normal cell line/IC50 of the same pure compound in a cancerous cell line.

[2] = test system: HT-29 (colon) cancer cells; test: In vitro cytotoxicity assessment (MTT), HT-29; format: cell-based, human; settings: for IC50: Homo sapiens, HT-29, 48 h, MTT, mean of three experiments ± SD, NA: not active
Description: as §1, §2

[3] = test system: MCF-7 (breast) cancer cells; test: In vitro cytotoxicity assessment (MTT), MCF-7; format: cell-based, human; settings: for IC50: Homo sapiens, MCF7, 48 h, MTT, mean of three experiments ± SD, NA: not active
Description: as §1, §2

[4] = test system: HepG2 (liver) cancer cells; test: In vitro cytotoxicity assessment (MTT), HepG2; format: cell-based, human; settings: for IC50: Homo sapiens, HepG2, 48 h, MTT, mean of three experiments ± SD, NA: not active
Description: as §1, §2

[5] = test system: A-2780, HT-29, MCF-7, and HepG2 cancer cell lines; test: Cytotoxic screening, statements for the whole panel of four cancer cell lines; format: cell-based, human; settings: A-2780, HT-29, MCF-7, HepG2
Description: as §1, §2

WI38 normal cells = test: In vitro cytotoxicity assessment (MTT), normal cells; format: cell-based; settings: WI-38; normal human cell line WI38, MTT
Description: as §2, with “Then the cells were treated at different concentrations (2.5–10 μM) with 5-FU as a positive control or the synthesized compounds for 48h.” left out

CDK2/CyclinA2 = molecular target: T1, CDK2/CyclinA2 (Homo sapiens, UniProt P24941); test: In vitro inhibitory screening of CDK2 (CDK2 Assay kit, Kinase-Glo MAX); format: biochemical; settings: CDK2/CyclinA2, 30 °C 45 min; mean of three experiments ± SD; read-out: CDK2 Protein Kinase (IC50 in µM)
T1 construct: purchased #79599
Description: To measure CDK2/CyclinA2 activity, the CDK2 Assay kit #79599 was used for screening and profiling applications, together with Kinase-Glo® MAX (Promega#V6071) as a detection reagent. […] Briefly, 25 μL of the master mixture containing 6 μL Kinase assay buffer + 1 μL ATP + 5 μL CDK substrate peptide + 13 μL distilled water were added to each well. Later, 5 µL of inhibitor buffer only or diluted compound were added to the blank or test inhibitor wells, respectively. Then, 20μL of Kinase assay buffer was added to blank wells. The reaction was started by the addition of 20 μL of CDK2/CyclinA2 enzyme to the wells of the test inhibitor. The final volume was 50 µL in all of the reactions. Incubation was at 30 °C for 45 min for all the enzymatic reactions. Finally, to each well, 50 μL of Kinase-Glo MAX reagent was added. The plate was incubated for 15 min at room temperature then, the luminescence signal was measured using a Bio Tek Synergy 2 microplate reader. Experiments were performed in triplicates.

A-2780 cells [6] = test: Annexin V-FITC/PI apoptosis assay, A-2780; format: cell-based, human; settings: 6e at its IC50, 48 h
Description: (§3) For the apoptosis assay, the BioVision annexin V-FITC apoptosis detection kit (Cat No.: K101; BioVision, Inc., Milpitas, CA, USA) was used, per the manufacturer’s instructions. […] The cells were resuspended in 500 μL of Annexin V–binding buffer, followed by the addition of 5μL of Annexin V–FITC, then incubated in the dark for 10 min at room temperature. Analysis was performed using a FACS Calibur flow cytometer (BD Biosciences, San Jose, CA, USA), using […] software (Becton Dickinson Immunocytometry Systems, San Jose, CA, USA).

HT-29 cells [7] = test: Annexin V-FITC/PI apoptosis assay, HT-29; format: cell-based, human; settings: 6e at its IC50, 48 h
Description: as §3

MCF-7 cells [8] = test: Annexin V-FITC/PI apoptosis assay, MCF-7; format: cell-based, human; settings: 6e at its IC50, 48 h
Description: as §3

HepG2 cells [9] = test: Annexin V-FITC/PI apoptosis assay, HepG2; format: cell-based, human; settings: 6e at its IC50, 48 h
Description: as §3

A-2780 cells [10] = test: Cell cycle analysis (PI flow cytometry), A-2780; format: cell-based, human; settings: IC50 of 6e, 48 h
Description: (§4) To evaluate cancer cells distribution through different cell cycle stages, the DNA content of propidium iodide-stained nuclei was assessed by flow cytometry as depicted earlier. […] Then, the cells were washed twice with ice-cold phosphate-buffered saline (PBS) and gathered by centrifugation. The cell pellets were mixed with 75% ethanol (−20 °C). Afterward, cells were stained with the propidium iodide flow cytometry kit (ab139418, Abcam, Cambridge, MA, USA), according to the manufacturer’s instructions. Cell cycle distribution was established by FACS Calibur flow cytometer (BD Biosciences, San Jose, CA, USA). Cell cycle distribution was measured using […] software (Becton Dickinson Immunocytometry Systems, San Jose, CA, USA).

HT-29 cells [11] = test: Cell cycle analysis (PI flow cytometry), HT-29; format: cell-based, human; settings: IC50 of 6e, 48 h
Description: as §4

MCF-7 cells [12] = test: Cell cycle analysis (PI flow cytometry), MCF-7; format: cell-based, human; settings: IC50 of 6e, 48 h
Description: as §4

HepG2 cells [13] = test: Cell cycle analysis (PI flow cytometry), HepG2; format: cell-based, human; settings: IC50 of 6e, 48 h
Description: as §4

p21 = test: Western blot analysis for p21 in MCF-7 cells; format: cell-based, human; settings: 6e at IC50 (1.67 μM), 48 h, relative to actin
Description: (§5) Whole-cell protein lysates were prepared according to a standard protocol using RIPA buffer (Cell Signaling, Danvers, MA, USA). Total protein concentrations were determined in the supernatant using the Bradford method. Equal amounts (20 µg) of protein samples were mixed and boiled with SDS Loading buffer for 10 min, allowed to cool on ice and then loaded into SDS-polyacrylamide gel and separated by Cleaver electrophoresis unit (Cleaver, UK), transferred onto polyvinylidene fluoride (PVDF) membranes (BioRad, USA) for 30 min using a Semi-dry Electroblotter (Biorad, USA) at 2.5 A and 25 V for 30 min. Membranes were blocked with 5% non-fat dry milk in TBS-T and incubated overnight with the primary antibody: anti-p21, anti-p27 antibody, or anti-β-actin antibody (1:1000; Cell Signaling Technology, Inc., Danvers, MA, USA), then incubated with secondary HRP-linked antibody (1:5000). Development was done using Pierce ECL2 chemiluminescent and chemifluorescent substrate (Perkin Elmer, Waltham, MA, USA). The chemiluminescent signals were captured using a CCD camera-based imager (Chemi Doc imager, Biorad, USA), and the bands’ intensities were then measured relative to actin by ImageLab (Biorad).

p27 = test: Western blot analysis for p27 in MCF-7 cells; format: cell-based, human; settings: 6e at IC50 (1.67 μM), 48 h, relative to actin
Description: as §5

**Q.** Which IC50 [1] does the source give for `Cc1[nH]c(=S)[nH]c(=O)c1S(=O)(=O)Cl` [Compound 2, 6-Methyl-4-Oxo-2-Thioxo-1,2,3,4-Tetrahydropyrimidine-5-Sulfonyl Chloride] here?
**A.** Its IC50 is 21.4 ± 2.51 µM.

**Q.** And the IC50 [2]?
**A.** Its IC50 is 18 ± 1.04 µM.

**Q.** What about the IC50 [3] of the same molecule?
**A.** The IC50 was 16.5 ± 1.4 µM.

**Q.** What about the IC50 [4] of the same molecule?
**A.** The IC50 was 17 ± 0.93 µM.

**Q.** What about the “anticancer activity against the four cancer cell lines, in words” value (shortened to “anticancer activity”) [5] of the same molecule?
**A.** The value was “low anticancer activity”.

**Q.** And the melting point?
**A.** The melting point was 324 to 326 °C.

**Q.** Which IC50 [2] does the source give for `Cc1[nH]c(=S)[nH]c(=O)c1S(=O)(=O)C1C(=O)NC(=O)NC1=O` [Compound 3, 5-[(6-Methyl-4-Oxo-2-Thioxo-1,2,3,4-Tetrahydropyrimidin-5-Yl)sulfonyl]pyrimidine-2,4,6(1H,3H,5H)-Trione] here?
**A.** Its IC50 is 13 ± 2 µM.

**Q.** What about the IC50 [3] of the same molecule?
**A.** The IC50 was 14.9 ± 2.89 µM.

**Q.** And the “anticancer activity” value [5]?
**A.** The value was “low or no anticancer activity”.

**Q.** What about the melting point of the same molecule?
**A.** The melting point was 344 to 346 °C.

**Q.** Which IC50 [2] does the source give for `Cc1[nH]c(=S)[nH]c(=O)c1S(=O)(=O)C1C(=O)CC(C)(C)CC1=O` [Compound 4, 5,5-Dimethyl-2-[(6-Methyl-4-Oxo-2-Thioxo-1,2,3,4-Tetrahydropyrimidin-5-Yl)sulfonyl]cyclohexane-1,3-Dione] here?
**A.** The IC50 was 14.2 ± 2.85 µM.

**Q.** And the IC50 [3]?
**A.** Its IC50 is 10.8 ± 1.6 µM.

**Q.** And the “anticancer activity” value [5]?
**A.** The value was “low or no anticancer activity”.

**Q.** What about the melting point of the same molecule?
**A.** Its melting point is 340 to 342 °C.

**Q.** What does the source list for `Cc1[nH]c(=S)[nH]c(=O)c1S(=O)(=O)C1Cc2ccccc2C1=O` (stereo not drawn) [Compound 5, 6-Methyl-5-(1-Oxo-2,3-Dihydro-1H-Inden-2-Ylsulfonyl)-2-Thioxo-2,3-Dihydropyrimidin-4(1H)-One]?
**A.** IC50 [2]: 11.7 ± 1.96 µM; IC50 [3]: 17.3 ± 2.35 µM; anticancer activity against the four cancer cell lines, in words [5]: low or no anticancer activity; melting point: 348 to 350 °C

**Q.** For `Cc1[nH]c(=S)[nH]c(=O)c1S(=O)(=O)Nc1cccc(Cl)c1Cl` [Compound 6e, N-(2,3-Dichlorophenyl)-6-Methyl-4-Oxo-2-Thioxo-1,2,3,4-Tetrahydropyrimidine-5-Sulfonamide], which IC50 [1] is on record?
**A.** The IC50 was 2.52 ± 0.47 µM.

**Q.** What about the “SI (selectivity index) A-2780” value ([1]; IC50 in WI38 normal cells / IC50 in A-2780) of the same molecule?
**A.** Its value is 23.91.

**Q.** And the IC50 [2]?
**A.** The IC50 was 1.75 ± 0.4 µM.

**Q.** What about the “SI (selectivity index) HT-29” value ([2]; IC50 in WI38 normal cells / IC50 in HT-29) of the same molecule?
**A.** The value was 34.40.

**Q.** And the IC50 [3]?
**A.** Its IC50 is 1.67 ± 0.31 µM.

**Q.** And the “SI (selectivity index) MCF-7” value ([3]; IC50 in WI38 normal cells / IC50 in MCF-7)?
**A.** The value was 36.05.

**Q.** And the IC50 [4]?
**A.** Its IC50 is 2.02 ± 0.85 µM.

**Q.** What about the “SI (selectivity index) HepG2” value ([4]; IC50 in WI38 normal cells / IC50 in HepG2) of the same molecule?
**A.** Its value is 29.80.

**Q.** And the IC50 (WI38 normal cells)?
**A.** Its IC50 is 60.2 ± 1.77 µM.

**Q.** What about the IC50 (CDK2/CyclinA2) of the same molecule?
**A.** Its IC50 is 0.407 ± 0.021 µM.

**Q.** And the “% Early Apoptosis” value (A-2780 cells [6])?
**A.** Its value is 2.38%.

**Q.** And the “% Late Apoptosis” value (A-2780 cells [6])?
**A.** The value was 22.02%.

**Q.** What about the “% Necrosis” value (A-2780 cells [6]) of the same molecule?
**A.** The value was 9.41%.

**Q.** What about the “% Total” value (A-2780 cells [6]) of the same molecule?
**A.** Its value is 33.81%.

**Q.** And the “% Early Apoptosis” value (HT-29 cells [7])?
**A.** Its value is 1.61%.

**Q.** And the “% Late Apoptosis” value (HT-29 cells [7])?
**A.** Its value is 26.24%.

**Q.** What about the “% Necrosis” value (HT-29 cells [7]) of the same molecule?
**A.** The value was 14.51%.

**Q.** What about the “% Total” value (HT-29 cells [7]) of the same molecule?
**A.** Its value is 42.36%.

**Q.** And the “% Early Apoptosis” value (MCF-7 cells [8])?
**A.** The value was 3.82%.

**Q.** What about the “% Late Apoptosis” value (MCF-7 cells [8]) of the same molecule?
**A.** The value was 23.71%.

**Q.** What about the “% Necrosis” value (MCF-7 cells [8]) of the same molecule?
**A.** The value was 11.75%.

**Q.** And the “% Total” value (MCF-7 cells [8])?
**A.** The value was 39.28%.

**Q.** What about the “% Early Apoptosis” value (HepG2 cells [9]) of the same molecule?
**A.** The value was 0.84%.

**Q.** And the “% Late Apoptosis” value (HepG2 cells [9])?
**A.** Its value is 18.97%.

**Q.** And the “% Necrosis” value (HepG2 cells [9])?
**A.** Its value is 8.81%.

**Q.** What about the “% Total” value (HepG2 cells [9]) of the same molecule?
**A.** The value was 28.62%.

**Q.** What about the “phase of cell growth arrest” value (A-2780 cells [10]) of the same molecule?
**A.** Its value is “G1/S phase”.

**Q.** What about the “phase of cell growth arrest” value (HT-29 cells [11]) of the same molecule?
**A.** The value was “S phase”.

**Q.** And the “phase of cell growth arrest” value (MCF-7 cells [12])?
**A.** Its value is “S phase”.

**Q.** And the “phase of cell growth arrest” value (HepG2 cells [13])?
**A.** The value was “G2/M phase”.

**Q.** And the “protein expression level of p21, increase compared to control” value (p21)?
**A.** Its value is “about 2.6 fold”.

**Q.** And the “protein expression level of p27, increase compared to control” value (p27)?
**A.** Its value is ~2.2 fold.

**Q.** What about the melting point of the same molecule?
**A.** Its melting point is 326 to 328 °C.
